Test results published in the NIST ThermoML archive (doi:10.1016/j.jct.2007.05.005).

Experiment: xn = mol fraction of the nth substance listed
Conditions: 101.3 kPa, Liquid; for speed of sound: Sing-around technique in a fixed-path interferometer

CCOC(C)(C)C [2-ethoxy-2-methylpropane] + CC(C)(C)O
Conditions	mass density, 303.15 K [kg/m3]	mass density, 313.15 K [kg/m3]	mass density, 323.15 K [kg/m3]	speed of sound, 303.15 K [m/s]	speed of sound, 313.15 K [m/s]	speed of sound, 323.15 K [m/s]
x1 = 0.06	770.981	760.486	749.635	1085.9	1043.4	1001.6
x1 = 0.093	768.859	758.385	747.565	1079.5	1037.4	996.19
x1 = 0.2	762.345	751.936	741.141	1062.9	1021.9	980.83
x1 = 0.298	757.005	746.63	735.846	1050.7	1010.1	969.12
x1 = 0.386	752.738	742.309	731.52	1041.5	1000.3	959.27
x1 = 0.488	748.226	737.777	726.96	1033.5	992.26	950.9
x1 = 0.632	742.556	732.028	721.169	1024.7	982.68	940.83
x1 = 0.685	740.622	730.077	719.198	1022.1	979.93	937.72
x1 = 0.796	736.85	726.255	715.369	1017.9	975.09	932.37
x1 = 0.896	733.592	722.99	712.15	1014.9	971.48	928.25
x1 = 0.949	731.862	721.29	710.507	1013.4	969.31	925.71
x1 = 1	730.186	719.687	708.996	1010.2	965.87	922.08

CCOC(C)(C)C [2-ethoxy-2-methylpropane] + CC(C)CC(C)(C)C
Conditions	mass density, 288.15 K [kg/m3]	mass density, 298.15 K [kg/m3]	mass density, 323.15 K [kg/m3]	speed of sound, 288.15 K [m/s]	speed of sound, 298.15 K [m/s]	speed of sound, 323.15 K [m/s]
x1 = 0.047	697.781	689.477	668.28	1121.2	1078.7	975.15
x1 = 0.1	699.904	691.5	670.054	1118.3	1075.5	971.5
x1 = 0.204	704.01	695.429	673.45	1111.9	1068.9	964.23
x1 = 0.305	708.284	699.51	677.1	1106.8	1063.8	958.38
x1 = 0.4	712.599	703.649	680.717	1101.7	1058.5	952.41
x1 = 0.508	717.689	708.525	685.059	1096.5	1053.1	946.33
x1 = 0.596	722.093	712.737	688.798	1092.5	1048.3	941.25
x1 = 0.699	727.55	717.974	693.436	1088.3	1043.8	935.64
x1 = 0.788	732.615	722.843	697.73	1084.9	1040.1	931
x1 = 0.902	739.579	729.56	703.808	1081.5	1036.6	927.2
x1 = 0.949	742.53	732.405	706.371	1080.5	1035.4	925.22
x1 = 1	745.656	735.357	709.007	1078.9	1033.2	922.48

CCOC(C)(C)C [2-ethoxy-2-methylpropane] + CCO
Conditions	mass density, 288.15 K [kg/m3]	mass density, 298.15 K [kg/m3]	mass density, 323.15 K [kg/m3]	speed of sound, 288.15 K [m/s]	speed of sound, 298.15 K [m/s]	speed of sound, 323.15 K [m/s]
x1 = 0.049	790.26	781.555	759.223	1171.4	1135.6	1048.6
x1 = 0.097	786.997	778.154	755.418	1165.8	1128.9	1038.1
x1 = 0.198	780.646	771.547	748.104	1150.9	1112.5	1018.3
x1 = 0.303	774.648	765.324	741.204	1137.4	1097.5	999.82
x1 = 0.395	770.061	760.556	735.962	1127.4	1086.4	986.27
x1 = 0.504	765.017	755.325	730.194	1116.6	1074.6	971.7
x1 = 0.606	760.667	750.815	725.266	1108.4	1065.5	959.88
x1 = 0.691	757.429	747.458	721.666	1101.4	1058	950.98
x1 = 0.802	753.45	743.339	717.148	1094	1049.8	941.56
x1 = 0.895	749.87	739.659	713.326	1087.8	1043	933.37
x1 = 0.935	748.296	738.056	711.669	1084.8	1039.8	929.43
x1 = 1	745.656	735.357	709.007	1078.9	1033.2	922.48

CCOC(C)(C)C [2-ethoxy-2-methylpropane] + CCc1ccccc1
Conditions	mass density, 288.15 K [kg/m3]	mass density, 298.15 K [kg/m3]	mass density, 323.15 K [kg/m3]	speed of sound, 288.15 K [m/s]	speed of sound, 298.15 K [m/s]	speed of sound, 323.15 K [m/s]
x1 = 0.062	862.801	854.066	831.864	1341.6	1298.5	1195.2
x1 = 0.122	855.221	846.39	823.917	1324.4	1281	1177.2
x1 = 0.239	840.448	831.434	808.496	1291.1	1247.3	1142.5
x1 = 0.353	826.071	816.917	793.606	1258.9	1214.8	1109
x1 = 0.455	813.347	804.045	780.291	1230.1	1185.7	1079
x1 = 0.556	800.809	791.351	767.168	1201.7	1157.1	1049.8
x1 = 0.653	788.72	779.094	754.45	1174.2	1129.3	1021.4
x1 = 0.746	777.039	767.306	742.327	1148.3	1103.2	994.59
x1 = 0.834	765.895	756.026	730.658	1123.2	1077.9	968.81
x1 = 0.918	755.524	745.492	719.646	1099.7	1054	944.36
x1 = 0.959	750.111	740.037	714.068	1088	1042.2	932.2
x1 = 1	744.955	734.806	708.642	1076.4	1031	920.73

CCOC(C)(C)C [2-ethoxy-2-methylpropane] + Cc1ccccc1
Conditions	mass density, 288.15 K [kg/m3]	mass density, 298.15 K [kg/m3]	mass density, 323.15 K [kg/m3]	speed of sound, 288.15 K [m/s]	speed of sound, 298.15 K [m/s]	speed of sound, 323.15 K [m/s]
x1 = 0.052	864.001	854.662	831.025	1332.1	1288.3	1181.6
x1 = 0.108	855.965	846.56	822.744	1315.2	1271.3	1164
x1 = 0.217	840.966	831.445	807.297	1282.6	1238.1	1130.6
x1 = 0.301	829.662	820.051	795.645	1258.9	1214.7	1106.5
x1 = 0.41	815.355	805.638	780.903	1228	1183.6	1075
x1 = 0.505	803.55	793.739	768.747	1202.7	1158.1	1049.3
x1 = 0.615	789.864	779.951	754.631	1173.5	1129.1	1019.7
x1 = 0.701	779.62	769.63	744.088	1151.5	1107	997.51
x1 = 0.805	767.503	757.422	731.601	1125.3	1080.5	970.75
x1 = 0.897	757.112	746.951	720.871	1102.8	1058.2	948.16
x1 = 0.95	751.062	740.859	714.65	1089.8	1045	934.78
x1 = 1	745.656	735.357	709.007	1078.9	1033.2	922.48

CCOC(C)(C)C [2-ethoxy-2-methylpropane] + c1ccccc1
Conditions	mass density, 288.15 K [kg/m3]	mass density, 298.15 K [kg/m3]	mass density, 323.15 K [kg/m3]	speed of sound, 288.15 K [m/s]	speed of sound, 298.15 K [m/s]	speed of sound, 323.15 K [m/s]
x1 = 0.049	874.335	863.764	837.01	1327.2	1280	1165.5
x1 = 0.102	864.201	853.699	827.068	1308.3	1261.4	1147.2
x1 = 0.204	846.222	835.811	809.343	1274.8	1228.3	1114.7
x1 = 0.299	830.929	820.575	794.184	1245.6	1199.4	1086.3
x1 = 0.393	816.969	806.647	780.301	1219.1	1173	1060
x1 = 0.494	802.925	792.628	766.309	1192.1	1146.5	1034.2
x1 = 0.589	790.686	780.408	754.084	1168.6	1123.6	1011.7
x1 = 0.696	777.916	767.647	741.314	1143.5	1099	988.29
x1 = 0.799	766.357	756.096	729.753	1120.3	1075.7	965.1
x1 = 0.906	755	744.747	718.393	1097.6	1053.3	942.92
x1 = 0.953	750.242	739.991	713.647	1087.8	1044	933.45
x1 = 1	745.656	735.357	709.007	1078.9	1033.2	922.48
